# Reference: US8501752B2, “Methods for treating cancer and other pathological proliferating disorders by inhibiting mitosis using pyrrolo[2,3-d]pyrimidines” (Duquesne University of the Holy Ghost, priority 2005, dated 2013)
# “Also recorded” adds a separate entry of the source. Like-named read-outs stand apart in the source and are kept apart here.
# Key:
# [1] = system: HL-60(TB); assay: NCI IVCLSP growth inhibition (SRB), HL-60(TB); type: cell-based, human; conditions: 48 h drug incubation
# Method: (§1) FIG. 1 presents nine compounds that were tested using the National Cancer Institute (NCI) 60 human tumor cell lines. The cells lines, which represent leukemia, melanoma, and cancers of the lung, colon, brain, ovary, breast, prostate, and kidney, are listed in Table 1.
# (§2) Compounds 1-9 were tested according to the NCI Developmental Therapeutics Program (DTP) In Vitro Cell Line Screening Project (IVCLSP). […] Methodology for testing under the IVCLSP is as follows: The human tumor cell lines of the cancer screening panel are grown in RPMI 1640 medium containing 5% fetal bovine serum and 2 mM L-glutamine. […]
# (§3) Following drug addition, the plates are incubated for an additional 48 h at 37° C., 5% CO2, 95% air, and 100% relative humidity. […] Bound stain is subsequently solubilized with 10 mM trizma base, and the absorbance is read on an automated plate reader at a wavelength of 515 nm. […] Using the seven absorbance measurements [time zero, (Tz), control growth, (C), and test growth in the presence of drug at the five concentration levels (Ti)], the percentage growth is calculated at each of the drug concentrations levels. Percentage growth inhibition is calculated as: [(Ti−Tz)/(C−Tz)]×100 for concentrations for which Ti>/=Tz [(Ti−Tz)/Tz]×100 for concentrations for which Ti<Tz.
# (§4) Three dose response parameters are calculated for each experimental agent. […]
# [2] = system: SR; assay: NCI IVCLSP growth inhibition (SRB), SR; type: cell-based, human; conditions: 48 h drug incubation
# Method: as §1, §2, §3, §4
# [3] = system: HOP-92; assay: NCI IVCLSP growth inhibition (SRB), HOP-92; type: cell-based, human; conditions: 48 h drug incubation
# Method: as §1, §2, §3, §4
# [4] = system: NCI-H226; assay: NCI IVCLSP growth inhibition (SRB), NCI-H226; type: cell-based, human; conditions: 48 h drug incubation
# Method: as §1, §2, §3, §4
# [5] = system: NCI-H23; assay: NCI IVCLSP growth inhibition (SRB), NCI-H23; type: cell-based, human; conditions: 48 h drug incubation
# Method: as §1, §2, §3, §4
# [6] = system: SK-MEL-2; assay: NCI IVCLSP growth inhibition (SRB), SK-MEL-2; type: cell-based, human; conditions: 48 h drug incubation
# Method: as §1, §2, §3, §4
# [7] = system: SK-MEL-28; assay: NCI IVCLSP growth inhibition (SRB), SK-MEL-28; type: cell-based, human; conditions: 48 h drug incubation
# Method: as §1, §2, §3, §4
# [8] = system: 786-0; assay: NCI IVCLSP growth inhibition (SRB), 786-0; type: cell-based, human; conditions: 48 h drug incubation
# Method: as §1, §2, §3, §4
# [9] = system: ACHN; assay: NCI IVCLSP growth inhibition (SRB), ACHN; type: cell-based, human; conditions: 48 h drug incubation
# Method: as §1, §2, §3, §4
# [10] = system: HCC-2998; assay: NCI IVCLSP growth inhibition (SRB), HCC-2998; type: cell-based, human; conditions: 48 h drug incubation
# Method: as §1, §2, §3, §4
# [11] = system: SF-268; assay: NCI IVCLSP growth inhibition (SRB), SF-268; type: cell-based, human; conditions: 48 h drug incubation
# Method: as §1, §2, §3, §4
# [12] = system: SF-539; assay: NCI IVCLSP growth inhibition (SRB), SF-539; type: cell-based, human; conditions: 48 h drug incubation
# Method: as §1, §2, §3, §4
# [13] = system: SNB-75; assay: NCI IVCLSP growth inhibition (SRB), SNB-75; type: cell-based, human; conditions: 48 h drug incubation
# Method: as §1, §2, §3, §4
# [14] = system: MALME-3M; assay: NCI IVCLSP growth inhibition (SRB), MALME-3M; type: cell-based, human; conditions: 48 h drug incubation
# Method: as §1, §2, §3, §4
# [15] = system: SN12C; assay: NCI IVCLSP growth inhibition (SRB), SN12C; type: cell-based, human; conditions: 48 h drug incubation
# Method: as §1, §2, §3, §4
# [16] = system: DU-145; assay: NCI IVCLSP growth inhibition (SRB), DU-145; type: cell-based, human; conditions: 48 h drug incubation
# Method: as §1, §2, §3, §4
# [17] = system: MDA-N; assay: NCI IVCLSP growth inhibition (SRB), MDA-N; type: cell-based, human; conditions: 48 h drug incubation
# Method: as §1, §2, §3, §4
# [18] = system: NCI 60 human tumor cell lines; assay: NCI IVCLSP growth inhibition, whole panel (text summaries); type: cell-based
# Method: as §1
# Compounds 1-9 were tested according to the NCI Developmental Therapeutics Program (DTP) In Vitro Cell Line Screening Project (IVCLSP). […] Methodology for testing under the IVCLSP is as follows: The human tumor cell lines of the cancer screening panel are grown in RPMI 1640 medium containing 5% fetal bovine serum and 2 mM L-glutamine. For a typical screening experiment, cells are inoculated into 96 well microtiter plates in 100 μL at plating densities ranging from 5,000 to 40,000 cells/well depending on the doubling time of individual cell lines. After cell inoculation, the microtiter plates are incubated at 37° C., 5% CO2, 95% air and 100% relative humidity for 24 h prior to addition of experimental drugs.
# After 24 h, two plates of each cell line are fixed in situ with TCA, to represent a measurement of the cell population for each cell line at the time of drug addition (Tz). Experimental drugs are solubilized in dimethyl sulfoxide at 400-fold the desired final maximum test concentration and stored frozen prior to use. At the time of drug addition, an aliquot of frozen concentrate is thawed and diluted to twice the desired final maximum test concentration with complete medium containing 50 μg/ml gentamicin. Additional four, 10-fold or ½ log serial dilutions are made to provide a total of five drug concentrations plus control. Aliquots of 100 μl of these different drug dilutions are added to the appropriate microtiter wells already containing 100 μl of medium, resulting in the required final drug concentrations.
# Following drug addition, the plates are incubated for an additional 48 h at 37° C., 5% CO2, 95% air, and 100% relative humidity. For adherent cells, the assay is terminated by the addition of cold TCA. Cells are fixed in situ by the gentle addition of 50 μl of cold 50% (w/v) TCA (final concentration, 10% TCA) and incubated for 60 minutes at 4° C. The supernatant is discarded, and the plates are washed five times with tap water and air dried. Sulforhodamine B (SRB) solution (100 μl) at 0.4% (w/v) in 1% acetic acid is added to each well, and plates are incubated for 10 minutes at room temperature. After staining, unbound dye is removed by washing five times with 1% acetic acid and the plates are air dried. Bound stain is subsequently solubilized with 10 mM trizma base, and the absorbance is read on an automated plate reader at a wavelength of 515 nm. For suspension cells, the methodology is the same except that the assay is terminated by fixing settled cells at the bottom of the wells by gently adding 50 μl of 80% TCA (final concentration, 16% TCA). Using the seven absorbance measurements [time zero, (Tz), control growth, (C), and test growth in the presence of drug at the five concentration levels (Ti)], the percentage growth is calculated at each of the drug concentrations levels. Percentage growth inhibition is calculated as: [(Ti−Tz)/(C−Tz)]×100 for concentrations for which Ti>/=Tz [(Ti−Tz)/Tz]×100 for concentrations for which Ti<Tz.
# Three dose response parameters are calculated for each experimental agent. […] The drug concentration resulting in total growth inhibition (TGI) is calculated from Ti=Tz. […]
# [19] = system: p53; assay: Western blot, p53 expression in MCF-7 cells; type: cell-based, human; conditions: 24 hours, various concentrations
# Method: To further characterize the cell cycle effects of Compound 1 on human tumor cells, MCF-7 cells were treated for 24 hours with various concentrations of Compound 1, vinblastine, or TAXOL (paclitaxel). Cells were then harvested, lysed, and analyzed for levels of expression of p53 and WAF1 by Western Blot analyses. […] Compound 1 is identified as “149” in these figures. […] None of these treatments affected the expression of bcl-2 or P-tubulin in the MCF-7 cells.
# [20] = system: MCF-7 cells; assay: Cytotoxicity, drug-sensitive MCF-7 cells; conditions: mean ± SEM for 3 experiments
# Source text: (§5) These cell lines are resistant to anticancer drugs due to overexpression of the transport proteins P-glycoprotein or MRP1.
# [21] = system: MCF-7/VP cells; assay: Cytotoxicity, MCF-7/VP cells that overexpress MRP1; conditions: for IC50: mean ± SEM for 3 experiments
# Source text: as §5
structure (smiles),measurement,setting,value
COc1cc(CCc2cn(Cc3ccccc3)c3nc(N)nc(C)c23)cc(OC)c1OC [Compound 1],GI50,[1],64.7 nM
same,GI50,[2],31.4 nM
same,GI50,[3],467 nM
same,GI50,[4],195 nM
same,GI50,[5],278 nM
same,GI50,[6],381 nM
same,GI50,[7],> 1000 nM
same,GI50,[8],254 nM
same,GI50,[9],728 nM
same,GI50,[10],317 nM
same,GI50,[11],669 nM
same,GI50,[12],74.5 nM
same,GI50,[13],358 nM
same,GI50,[14],283 nM
same,GI50,[15],537 nM
same,GI50,[16],224 nM
same,GI50,[17],< 10 nM
same,"GI50 values, level across the tumor cell lines (in words)",[18]; NCI 60 tumor panel,nanomolar to submicromolar levels; also recorded: single or two digit nanomolar levels against 16 tumor cell lines; also recorded: submicromolar levels against 40 tumor cell lines; also recorded: micromolar levels against 3 tumor cell lines
same,average GI50,"[18]; requirement for a microtubule-targeting agent, satisfied",one μM or less
same,level of expression of p53 (in words),[19],induced the expression
same,IC50,"[20]; read-out: Cytotoxicity IC50, MCF-7",300 ± 160 nM
same,IC50,"[20]; read-out: drug sensitivity (IC50), MCF-7, Table 4",280 ± 10 nM
same,Resistance (MCF-7/VP relative to MCF-7),[21]; MRP1,0.6
same,IC50,"[21]; read-out: Cytotoxicity IC50, MCF-7/VP",250 ± 160 nM
same,IC50,"[21]; read-out: drug sensitivity (IC50), MCF-7/VP, Table 4, MRP1 overexpressing",180 ± 10 nM
